Test: xn = mol fraction of the nth substance listed
Conditions: 348.15 K, Liquid

CCO [ethanol] + O
mass density [kg/m3]
Conditions | 10000 kPa | 20000 kPa | 30000 kPa | 40000 kPa
x1 = 0.003 | – | 981.9 | 986.1 | 990.1
x1 = 0.0042 | – | 980.6 | 984.8 | 988.8
x1 = 0.0082 | – | 979.4 | 983.6 | 987.6
x1 = 0.0119 | – | 977.7 | 981.9 | 986
x1 = 0.0158 | – | 975.3 | 979.4 | 983.5
x1 = 0.0184 | – | 973.9 | 978.1 | 982.1
x1 = 0.0219 | – | 972.6 | 976.7 | 980.8
x1 = 0.0255 | – | 970.7 | 975 | 979
x1 = 0.0279 | – | 969.1 | 973.3 | 977.3
x1 = 0.0315 | – | 968 | 972.3 | 976.3
x1 = 0.0366 | – | 965.3 | 969.5 | 973.6
x1 = 0.0392 | – | 963.8 | 968.1 | 972.1
x1 = 0.0439 | – | 962.1 | 966.3 | 970.4
x1 = 0.0483 | 955.6 | 959.9 | 964.1 | 968.2
x1 = 0.0516 | 954.6 | 958.9 | 963.2 | 967.3
x1 = 0.0559 | 953.2 | 957.5 | 961.7 | 965.9
x1 = 0.06 | 951.3 | 955.8 | 960 | 964.1
x1 = 0.0652 | 949.1 | 953.5 | 957.8 | 961.9
x1 = 0.0679 | 948.2 | 952.5 | 956.8 | 960.9
x1 = 0.0722 | 946.1 | 950.4 | 954.7 | 958.9
x1 = 0.0801 | 942.6 | 947 | 951.3 | 955.6
x1 = 0.084 | 941.9 | 946.3 | 950.7 | 954.9
x1 = 0.0879 | 939.9 | 944.4 | 948.8 | 953
x1 = 0.0926 | 938.1 | 942.6 | 947 | 951.3
x1 = 0.0958 | 936.8 | 941.3 | 945.7 | 950
x1 = 0.1006 | 934.9 | 939.4 | 943.9 | 948.1
x1 = 0.1111 | 930.7 | 935.3 | 939.8 | 944.2
x1 = 0.1225 | 926.3 | 931.1 | 935.6 | 940
x1 = 0.1296 | 923.6 | 928.3 | 932.9 | 937.4
x1 = 0.1402 | 919.5 | 924.4 | 929.1 | 933.7
x1 = 0.151 | 915.4 | 920.3 | 925.1 | 929.7
x1 = 0.1601 | 912.1 | 917.1 | 922 | 926.6
x1 = 0.1703 | 908.4 | 913.5 | 918.4 | 923.1
x1 = 0.18 | 904.8 | 910 | 915 | 919.8
x1 = 0.1903 | 901.3 | 906.5 | 911.6 | 916.4
x1 = 0.1996 | 898.1 | 903.4 | 908.5 | 913.4
x1 = 0.2269 | 888.9 | 894.4 | 899.7 | 904.8
x1 = 0.2502 | 881.6 | 887.3 | 892.8 | 898.1
x1 = 0.2745 | 874.2 | 880.2 | 885.8 | 891.1
x1 = 0.3009 | 866.8 | 872.9 | 878.6 | 884.2
x1 = 0.35 | 853.6 | 860 | 866.2 | 872
x1 = 0.4034 | 840.7 | 847.5 | 854 | 860
x1 = 0.4501 | 830.3 | 837.4 | 844.2 | 850.5
x1 = 0.498 | 820.7 | 828.1 | 835.1 | 841.6
x1 = 0.5501 | 811 | 818.7 | 825.9 | 832.7
x1 = 0.5998 | 802.5 | 810.5 | 818 | 824.9
x1 = 0.6489 | 794.6 | 802.9 | 810.6 | 817.8
x1 = 0.6967 | 787.6 | 796.1 | 804 | 811.3
x1 = 0.7475 | 780.7 | 789.4 | 797.6 | 805.1
x1 = 0.7996 | 774 | 783 | 791.3 | 799
x1 = 0.8484 | 768 | 777.3 | 785.8 | 793.6
x1 = 0.8993 | 762.1 | 771.6 | 780.3 | 788.3
x1 = 0.9503 | 756.7 | 766.4 | 775.2 | 783.4
x1 = 1 | 751.2 | 761.2 | 770.3 | 778.6
